The supplement of paper PMC13380429

What was measured:
Settings in all cases: 72 h
Caco-2 [1] = assay: cell viability relative to DMSO; higher = less toxic
Calu-3 [2] = assay: as above
HepG2 [3] = assay: as above
U2OS [4] = assay: as above
Vero E6 [5] = assay: as above
Calu-3 [6] = assay: relative viability EC50 (midpoint between 100% and the lowest measured viability); higher = less toxic
HepG2 [7] = assay: as above
U2OS [8] = assay: as above
Vero E6 [9] = assay: as above
Caco-2 [10] = assay: drug sensitivity score (DSS) for viability; higher = more toxic; extreme values may be limits of the assay
Calu-3 [11] = assay: as above
HepG2 [12] = assay: as above
U2OS [13] = assay: as above
Vero E6 [14] = assay: as above
Caco-2 [15] = assay: relative viability EC50 (midpoint between 100% and the lowest measured viability); higher = less toxic

Compound	cell viability (Caco-2 [1]; 1 nM)	cell viability (Caco-2 [1]; 10 nM)	cell viability (Caco-2 [1]; 100 nM)	cell viability (Caco-2 [1]; 1000 nM)	cell viability (Caco-2 [1]; 10000 nM)	cell viability (Calu-3 [2]; 1 nM)	cell viability (Calu-3 [2]; 10 nM)	cell viability (Calu-3 [2]; 100 nM)	cell viability (Calu-3 [2]; 1000 nM)	cell viability (Calu-3 [2]; 10000 nM)	cell viability (HepG2 [3]; 1 nM)	cell viability (HepG2 [3]; 10 nM)	cell viability (HepG2 [3]; 100 nM)	cell viability (HepG2 [3]; 1000 nM)	cell viability (HepG2 [3]; 10000 nM)	cell viability (U2OS [4]; 1 nM)	cell viability (U2OS [4]; 10 nM)	cell viability (U2OS [4]; 100 nM)	cell viability (U2OS [4]; 1000 nM)	cell viability (U2OS [4]; 10000 nM)	cell viability (Vero E6 [5]; 1 nM)	cell viability (Vero E6 [5]; 10 nM)	cell viability (Vero E6 [5]; 100 nM)	cell viability (Vero E6 [5]; 1000 nM)	cell viability (Vero E6 [5]; 10000 nM)	relative viability EC50 (Calu-3 [6])	relative viability EC50 (HepG2 [7])	relative viability EC50 (U2OS [8])	relative viability EC50 (Vero E6 [9])	drug sensitivity score (Caco-2 [10])	drug sensitivity score (Calu-3 [11])	drug sensitivity score (HepG2 [12])	drug sensitivity score (U2OS [13])	drug sensitivity score (Vero E6 [14])	relative viability EC50 (Caco-2 [15])
FC(F)(F)c1cc(NC(=S)Nc2ccc(Br)cc2-c2nnn[nH]2)cc(C(F)(F)F)c1	96.6%	106%	95.3%	88.7%	57.9%	98.8%	102%	101%	103%	99.3%	99.3%	92.7%	98.7%	90.4%	85.6%	99.9%	104%	97.7%	97.6%	97.5%	95.8%	102%	93.3%	102%	83%	> 10 µM	> 10 µM	> 10 µM	> 10 µM	3.7	0	0.2	0	0.3	–
c1cc(-c2cnn3cc(-c4ccc(N5CCNCC5)cc4)cnc23)c2cccnc2c1	93.9%	99.7%	102%	95.1%	20.6%	109%	104%	97.4%	111%	6.2%	108%	101%	97.2%	102%	74.9%	97.4%	93.2%	95.9%	87.2%	1.5%	92.4%	99%	92.6%	87.7%	69.3%	3.69 µM	–	2.11 µM	–	5.1	4.5	0.8	7.6	2.5	2.67 µM
N#C/C(=C\c1ccc(O)c(O)c1)C(=O)NCCCc1ccccc1 [AG-555]	96.7%	100%	113%	84.1%	68.1%	112%	95.2%	101%	105%	88.4%	95.5%	89.9%	95.8%	95.4%	74.7%	99%	99.5%	103%	99.1%	88.7%	102%	102%	103%	103%	79.7%	> 10 µM	–	> 10 µM	> 10 µM	3.4	0	1.7	0	0.5	–
c1cc(Nc2cc(C3CC3)n[nH]2)nc(Nc2ccc3[nH]cnc3c2)n1 [APY-29]	88.9%	101%	94.7%	94.8%	72.5%	98.1%	100%	102%	37.8%	66.9%	96.4%	94.2%	93.1%	14.2%	5.2%	95.2%	102%	100%	55.4%	5.4%	101%	94.1%	93.5%	86.9%	13.8%	0.337 µM	0.339 µM	1.05 µM	1.97 µM	1.9	11.2	16.6	10.9	7	–
Clc1ccc(C2(c3ccc(-c4cn[nH]c4)cc3)CCNCC2)cc1 [AT7867]	103%	93.3%	105%	98.2%	73.9%	99.7%	98.7%	110%	132%	79.5%	102%	101%	97.6%	84.9%	54.2%	103%	95.1%	94.9%	90.3%	34.8%	100%	97%	97.5%	84.9%	39.8%	> 10 µM	–	2 µM	1.55 µM	1.3	0.2	4.4	5.2	5.6	–
Cc1cc(C(=O)Nc2nc3cccc(Cl)c3n2[C@@H]2CCCCN(C(=O)/C=C/CN(C)C)C2)ccn1 [EGF816]	95.5%	94.3%	98.1%	93.7%	72.3%	102%	95.9%	86.9%	51.6%	24.6%	107%	100%	96%	94.5%	32.1%	101%	98.9%	99.3%	98.4%	77.3%	104%	106%	102%	82.1%	36.8%	0.512 µM	2.5 µM	> 10 µM	1.45 µM	2.1	10.8	4.6	1	6.2	–
CS(=O)(=O)N1CCN(Cc2cc3nc(-c4cccc5[nH]ncc45)nc(N4CCOCC4)c3s2)CC1 [GDC-0941]	–	–	–	–	–	–	–	–	–	–	–	–	–	–	–	–	–	–	–	–	–	–	–	–	–	0.438 µM	–	0.775 µM	–	11.6	11.8	9.2	6.9	6.5	0.158 µM
CC1Nc2ccc(Cl)cc2S(=O)(=O)N1 (stereo unspecified) [IDRA-21]	105%	105%	95%	104%	99%	87.5%	92.2%	102%	97.4%	101%	102%	93.8%	97.3%	98.9%	98%	99.3%	105%	99.6%	102%	98.2%	–	–	–	–	–	> 10 µM	> 10 µM	> 10 µM	–	0	0	0	0	–	> 10 µM
CCCCOc1ccc(CC/C=C2\SC(=O)N(CCN)C2=O)cc1 [K145]	97.9%	106%	95.1%	91.2%	73.9%	92.1%	108%	87.1%	101%	92.5%	107%	102%	95%	95.4%	82.7%	89.3%	97.1%	91.4%	93.1%	83.1%	108%	103%	101%	104%	92%	> 10 µM	> 10 µM	> 10 µM	> 10 µM	1.7	0	0.6	0	0	–
Cc1ccc(NCCCc2ccccc2)c(N)c1 [NFKB-activation-inhibitor-II]	89.4%	85%	92.6%	98.4%	79.9%	90%	93.8%	94.7%	103%	84.1%	110%	97.1%	103%	98.2%	100%	98.9%	102%	94.9%	102%	93.2%	–	–	–	–	–	> 10 µM	> 10 µM	> 10 µM	–	0	0.1	0	0	–	> 10 µM
Cc1c(NC(=O)N2CCOCC2)ccc2c1c1ccccc1n2C(C)C [NPY-5RA972]	92.2%	106%	98.7%	101%	95.4%	109%	89.5%	105%	93.5%	96%	102%	98.5%	97.3%	118%	95.5%	100%	98.2%	105%	98.6%	97.5%	–	–	–	–	–	> 10 µM	> 10 µM	> 10 µM	–	0	0	0	0	–	> 10 µM
O=C(Nc1cccnc1)N1CCC(Cc2cccc(Oc3ccc(C(F)(F)F)cn3)c2)CC1 [PF-3845]	99.7%	103%	90.3%	92.4%	66.9%	103%	105%	104%	102%	79.1%	109%	102%	98.3%	101%	32.7%	97.3%	107%	101%	98.5%	82.7%	103%	96.8%	89.9%	101%	78.7%	> 10 µM	3.25 µM	> 10 µM	> 10 µM	2.4	0.5	3.6	0.6	0.6	–
CC[C@H](C)C(=O)O[C@H]1C[C@H](O)C=C2C=C[C@H](C)[C@H](CC[C@@H](O)C[C@@H](O)CC(=O)O)[C@H]21 [PRAVASTATIN SODIUM]	–	–	–	–	–	98.2%	93.8%	93.3%	98.2%	95.2%	112%	105%	93%	86.1%	112%	97.7%	100%	94.2%	101%	98.5%	98.9%	109%	107%	96.4%	105%	[…]	[…]	[…]	[…]	–	0	0	0	0	–
N#CC(=C(/N)Sc1ccccc1N)/C(C#N)=C(/N)Sc1ccccc1N [U-0126]	100%	96.8%	99.3%	86.4%	65%	94.6%	102%	100%	90.6%	93.5%	101%	95.9%	94.7%	70.6%	41%	98.2%	104%	96.9%	98.3%	84.3%	102%	99.9%	97.9%	88.6%	80.9%	> 10 µM	0.953 µM	> 10 µM	> 10 µM	3.4	0	6.6	0.4	1.3	–
CCCSc1ccc2[nH]c(NC(=O)OC)nc2c1 [albendazole]	87.7%	98.6%	96.9%	88%	66.7%	107%	102%	111%	94.7%	66.4%	103%	97.9%	85.6%	68.7%	33.1%	101%	100%	94.5%	81.1%	47.8%	105%	95.3%	104%	80.1%	34.6%	–	0.824 µM	1.37 µM	1.39 µM	2.8	2.4	7.8	4.9	6.5	–
